Source: patent US10173968B2, “Bishydrazone-based antifungal agents” (University of Kentucky Research Foundation, priority 2016, dated 2019)
Where “and” joins values, the source holds several entries; their conditions need not be identical. Equal values may be shown once. Read-outs that look alike come from different tables or passages of the source.

How the values were obtained:
[1] = tested on: C. albicans strains (panel of seven); assay: Antifungal MIC, summary over the panel; type: cell-based, Candida albicans; settings: Candida albicans; all, most or majority of the fungal strains; read-out: MIC, span over C. albicans strains
Protocol: In vitro MIC testing was performed according to the CLSI M27-A3 standard microbroth dilution methodology for the susceptibility testing of yeasts with minor modifications. […] MIC values were read visually for all tested compounds, and the endpoint was determined as the minimum concentration of compound that yielded complete inhibition relative to growth control.

E. cloacae ATCC 13047 = assay: Antibacterial MIC, double-dilution method; type: cell-based; settings: Enterobacter cloacae, ATCC13047, strain F, Gram-negative, read-out: MIC
Method in brief: (§1)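 Step one: single-point test of each compound at 500 μM. Step two: MIC determination across doubling dilutions.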

K. pneumoniae ATCC 27736 = assay: Antibacterial MIC, double-dilution method; type: cell-based; settings: Klebsiella pneumoniae, ATCC27736
Method in brief: as §1

A. baumannii ATCC 19606 = assay: Antibacterial MIC, double-dilution method; type: cell-based; settings: Acinetobacter baumannii, ATCC19606
Method in brief: as §1

[2] = tested on: L. monocytogenes ATCC 19115; assay: Antibacterial MIC, double-dilution method; type: cell-based; settings: Listeria monocytogenes, ATCC19115, strain B, Gram-positive, read-out: MIC
Method in brief: as §1

P. aeruginosa ATCC 27853 = assay: Antibacterial MIC, double-dilution method; type: cell-based; settings: Pseudomonas aeruginosa, ATCC27853, strain I, Gram-negative, read-out: MIC
Method in brief: as §1

VRE = assay: Antibacterial MIC, double-dilution method; type: cell-based; settings: Enterococcus, strain D, Gram-positive, read-out: MIC
Method in brief: as §1

E. coli MC1061 = assay: Antibacterial MIC, double-dilution method; type: cell-based; settings: Escherichia coli, strain G, Gram-negative, read-out: MIC
Method in brief: as §1

S. enterica ATCC 14028 = assay: Antibacterial MIC, double-dilution method; type: cell-based; settings: Salmonella enterica, ATCC14028, strain J, Gram-negative, read-out: MIC
Method in brief: as §1

MRSA = assay: Antibacterial MIC, double-dilution method; type: cell-based; settings: Staphylococcus aureus, strain C, Gram-positive, read-out: MIC
Method in brief: as §1

M. smegmatis MC2-155 = assay: Antibacterial MIC, double-dilution method; type: cell-based; settings: Mycolicibacterium smegmatis, MC2155, strain K, mycobacterial
Method in brief: as §1

B. subtilis 168 = assay: Antibacterial MIC, double-dilution method; type: cell-based; settings: Bacillus subtilis, strain A, Gram-positive
Method in brief: as §1

C. albicans ATCC 90819 = assay: Antifungal MIC, CLSI M27-A3 microbroth dilution; type: cell-based, Candida albicans; settings: Candida albicans, ATCC90819, C. albicans ATCC 90819, resistant to FLC, ITC, and VOR, read-out: MIC
Protocol: (§2) In vitro MIC testing was performed according to the CLSI M27-A3 standard microbroth dilution methodology for the susceptibility testing of yeasts with minor modifications.

C. albicans ATCC 10231 = assay: Antifungal MIC, CLSI M27-A3 microbroth dilution; type: cell-based, Candida albicans; settings: Candida albicans, ATCC10231, C. albicans ATCC 10231, resistant to FLC, ITC, and VOR, read-out: MIC
Protocol: as §2

C. albicans ATCC 1003 = assay: Antifungal MIC, CLSI M27-A3 microbroth dilution; type: cell-based, Candida albicans; settings: Candida albicans, ATCC1003, read-out: MIC
Protocol: as §2

C. albicans ATCC 2876 = assay: Antifungal MIC, CLSI M27-A3 microbroth dilution; type: cell-based, Candida albicans; settings: Candida albicans, ATCC2876, C. albicans ATCC 2876, susceptible to FLC, ITC, and VOR, read-out: MIC
Protocol: as §2

C. albicans ATCC 64124 = assay: Antifungal MIC, CLSI M27-A3 microbroth dilution; type: cell-based, Candida albicans; settings: Candida albicans, ATCC64124, C. albicans ATCC 64124, resistant to FLC, ITC, and VOR, read-out: MIC
Protocol: as §2

C. albicans ATCC 2310 = assay: Antifungal MIC, CLSI M27-A3 microbroth dilution; type: cell-based, Candida albicans; settings: Candida albicans, ATCC2310, C. albicans ATCC 2310, susceptible to FLC, ITC, and VOR, read-out: MIC
Protocol: as §2

C. albicans ATCC 1237 = assay: Antifungal MIC, CLSI M27-A3 microbroth dilution; type: cell-based, Candida albicans; settings: Candida albicans, ATCC1237, C. albicans ATCC 1237, resistant to FLC, ITC, and VOR, read-out: MIC
Protocol: as §2

[3] = converted from μM, read-out: MIC
[4] = C. albicans ATCC 1003, converted from μg/mL

SMILES | MIC [1] [µg/mL] | melting point [°C] | MIC (E. cloacae ATCC 13047; converted from μM) [µg/mL] | MIC (E. cloacae ATCC 13047; range 0.5 to 500 μM) [µM] | MIC ([2]; converted from μM) [µg/mL] | MIC ([2]; range 0.5 to 500 μM) [µM] | MIC (P. aeruginosa ATCC 27853; converted from μM) [µg/mL] | MIC (P. aeruginosa ATCC 27853; range 0.5 to 500 μM) [µM] | MIC (VRE; converted from μM) [µg/mL] | MIC (VRE; range 0.5 to 500 μM) [µM] | MIC (E. coli MC1061; converted from μM) [µg/mL] | MIC (E. coli MC1061; range 0.5 to 500 μM) [µM] | MIC (S. enterica ATCC 14028; converted from μM) [µg/mL] | MIC (S. enterica ATCC 14028; range 0.5 to 500 μM) [µM] | MIC (MRSA; converted from μM) [µg/mL] | MIC (MRSA; range 0.5 to 500 μM) [µM] | MIC (M. smegmatis MC2-155; [3]) [µg/mL] | MIC (B. subtilis 168; converted from μM) [µg/mL] | MIC (B. subtilis 168; range 0.5 to 500 μM) [µM] | MIC (C. albicans ATCC 90819; converted from μg/mL) [µM] | further results
Cl.N=C(N)N/N=C/c1ccc(-c2ccc(/C=N/Nc3ccc(Cl)cc3Cl)cc2)cc1 [Compound 7Ag, (E)-2-((4′-((E)-(2-(2,4-dichlorophenyl)hydrazono)methyl)-[1,1′-biphenyl]-4-yl)methylene)hydrazine-1-carboximidamide hydrochloride] | 7.8 to 15.6 | 356 to 358 | > 231 | > 500 | 3.6 | 7.8 | > 231 | > 500 | 3.6 | 7.8 | > 231 | > 500 | > 231 | > 500 | 3.6 | 7.8 | 1.8 | > 231 | > 500 | 67.8 | MIC (K. pneumoniae ATCC 27736; strain H, Gram-negative, converted from μM, read-out: MIC): > 231 µg/mL; MIC (K. pneumoniae ATCC 27736; strain H, Gram-negative, range 0.5 to 500 μM, read-out: MIC): > 500 µM; MIC (A. baumannii ATCC 19606; strain E, Gram-negative, converted from μM, read-out: MIC): > 231 µg/mL; MIC (A. baumannii ATCC 19606; strain E, Gram-negative, range 0.5 to 500 μM, read-out: MIC): > 500 µM; MIC (M. smegmatis MC2-155; range 0.5 to 500 μM, read-out: MIC): 3.9 µM; MIC (C. albicans ATCC 90819): 31.3 µg/mL; MIC (C. albicans ATCC 10231; converted from μg/mL): 16.8 µM; MIC (C. albicans ATCC 10231): 7.8 µg/mL; MIC (C. albicans ATCC 1003; [4]): 16.8 µM; MIC (C. albicans ATCC 1003): 7.8 µg/mL; MIC (C. albicans ATCC 2876; converted from μg/mL): 33.8 µM; MIC (C. albicans ATCC 2876): 15.6 µg/mL; MIC (C. albicans ATCC 64124; converted from μg/mL): 67.8 µM; MIC (C. albicans ATCC 64124): 31.3 µg/mL; MIC (C. albicans ATCC 2310; converted from μg/mL): 16.8 µM; MIC (C. albicans ATCC 2310): 7.8 µg/mL; MIC (C. albicans ATCC 1237; converted from μg/mL): 33.8 µM; MIC (C. albicans ATCC 1237): 15.6 µg/mL
Cl.N#Cc1ccc(N/N=C/c2ccc(-c3ccc(/C=N/NC(=N)N)cc3)cc2)cc1 [Compound 7Ae, (E)-2-((4′-((E and Z)-(2-(4-Cyanophenyl)hydrazono)methyl)-[1,1′-biphenyl]-4-yl)methylene)hydrazine-1-carboximidamide monohydrochloride] | 7.8 to 15.6 | 308 to 310 | 209 | 500 | 3.3 | 7.8 | 13.1 to 26.1 | 31.3 to 62.5 | 0.8 to 1.6 | 2 to 3.9 | 26.1 to 52.2 | 62.5 to 125 | 6.5 | 15.6 | 6.5 | 15.6 | 6.5 to 13.1 | 13.1 | 31.3 | 37.3 | MIC (K. pneumoniae ATCC 27736): 15.6 µM to 31.3 µM and 6.5 µg/mL to 13.1 µg/mL; MIC (A. baumannii ATCC 19606): 15.6 µM to 31.3 µM and 6.5 µg/mL to 13.1 µg/mL; MIC (M. smegmatis MC2-155; range 0.5 to 500 μM): 15.6 to 31.3 µM; MIC (C. albicans ATCC 90819): 15.6 µg/mL; MIC (C. albicans ATCC 10231; converted from μg/mL): 37.3 µM; MIC (C. albicans ATCC 10231): 15.6 µg/mL; MIC (C. albicans ATCC 1003; [4]): 18.7 µM; MIC (C. albicans ATCC 1003): 7.8 µg/mL; MIC (C. albicans ATCC 2876; converted from μg/mL): 37.3 µM; MIC (C. albicans ATCC 2876): 15.6 µg/mL; MIC (C. albicans ATCC 64124; converted from μg/mL): 74.9 µM; MIC (C. albicans ATCC 64124): 31.3 µg/mL; MIC (C. albicans ATCC 2310; converted from μg/mL): 37.3 µM; MIC (C. albicans ATCC 2310): 15.6 µg/mL; MIC (C. albicans ATCC 1237; converted from μg/mL): 37.3 µM; MIC (C. albicans ATCC 1237): 15.6 µg/mL
